Assay results published in article PMC12119673, “Apoptotic cell death induced by copper (II), manganese (II) and silver (I) complexes containing bridging dicarboxylate and 1,10-phenanthroline ligands: one of the multi-modes of anticancer activity?” (Biometals, 2025).

How the values were obtained:
[1] = tested on: caspase-3/7 in MCF-7 cells; assay: Caspase 3/7 expression, FLICA (FAM-DEVD-FMK) flow cytometry; type: cell-based, human; conditions: MCF-7, IC25 concentration, 24 h
Protocol: The expression of caspase-3/7 in MCF-7 and MCF-12A cells was determined using the VybrantTM FAM™ Caspase-3 and Caspase-7 Assay Kit (Cat# V35118) (Thermo Fisher Scientific, Ireland). Cells were seeded at a density of 1 × 10^5 in T25 flasks and incubated in routine conditions for 24 h. […] Post-exposure, the cells were harvested for staining.
Flow cytometry data analysis was performed with the CytExpert package (Ver. 2.4) (Beckman Coulter, USA) and Microsoft^Ⓡ Excel (USA). The mean MFI and percentage cells were calculated using these packages, followed by one-way ANOVA analysis with post hoc Bonferroni correction using GraphPad Prism (Ver. 9.4) (GraphPad, USA).
The expression of caspase-3/7 was analysed in MCF-7 and MCF-12A cells using fluorescent labelled inhibitors of caspase (FLICA): FAM-DEVD-FMK. […] Following the apoptosis induction study, it was of interest to determine whether the complexes were stimulating the executioner caspases triggering the irreversible proteolytic degradation of cells, culminating in cell death. […] These three complexes were selected based on their structural similarities, while incorporating alternative metal centres.

[2] = tested on: apoptotic genes in MCF-12A cells; assay: Apoptosis-related gene expression, qRT-PCR; type: cell-based, human; conditions: IC25 concentration, 24 h, relative to negative control
Protocol: (§1) A broad scope of molecular targets involved in the apoptotic pathway were selected for analysis using qRT-PCR including initiators, mediators and inhibitors. These gene targets along with their cellular location and associated primer set are outlined in Table 2. Primer sets for each gene were designed using NCBI nucleotide sequences and the Primer3 application (Table 3). Once designed, the primers were synthesised by Sigma Aldrich, Ireland.
(§2) MCF-7 and MCF-12A cells were seeded at a density of 1 × 10^5 in T25 flasks and incubated for 24 h allowing for attachment. Following incubation, the seeding media was removed, and the cells were washed with PBS. […] Post-exposure, RNA was isolated from the cells. Tri-reagent^Ⓡ (Sigma, Ireland) (Cat# T9424) was added to the cells followed by centrifugation at 300 g for 5 min. The RNA was precipitated using chloroform, followed by centrifugation and washing of the pellet using 75% ethanol. The RNA was resuspended in 30 μl of nuclease-free water. The RNA was either used immediately for qRT-PCR or stored at −80 ℃. The RNA from each sample was quantified using the NanoDrop™ 2000 Spectrophotometer (Thermo Fisher Scientific, Ireland). The A260/A230 ratio was measured to ensure the purity of each sample. Prior to cDNA synthesis, all samples were adjusted to a concentration of 100 ng. The RNA was then reverse transcribed into cDNA using the Quanta Biosciences Kit (Quanta Biosciences, USA) (Cat# 95047). Using the SimpliAmp Thermal Cycler (Applied Biosystems; Thermo Fisher Scientific, Ireland), the following settings were applied: 5 min at 22 ℃, 30 min at 42 ℃, 5 min at 85 ℃; samples were then maintained in an indefinite hold at 4 ℃ prior to being used for quantitative real-time PCR. The cDNA templates were amplified and analysed using SYBR™ Green (Fisher Scientific, UK) (Cat#10187094). Using the 7500 fast Real-Time PCR System (Applied Biosystems, USA), the following thermal cycling setting were applied for amplification: Pre-Incubation (1 cycle) 95 ℃, 5 Minutes, 4.4 ℃ ramp; Amplification (45 cycles) 95 °C 10 s ramp 4.4 °C, 60 °C 10 s ramp 2.2 °C, 72 °C 10 s ramp 4.4 °C; Melting Curve (1 cycle) 95 °C 5 s ramp 4.4 °C, 65 °C 1 min ramp 2.2 °C, 97 °C continuous ramp 0.11 °C acquisition 10 per °C; Cooling (1 cycle) 40 °C 10 s ramp 1.5 °C. Two reference genes, actin and tubulin, were employed to determine the expression of the target genes. No template controls were included to confirm the absence of template contamination and auto-fluorescence. Each PCR plate contained three technical replicates per sample and gene target, with each experiment repeated three independent times using three individual biological replicates.
(§3) qRT-PCR data was analysed by first using the Vandesompele method to calculate the geometric mean of Ct values for the reference genes, actin and tubulin. These values were used for normalisation of the target gene expression values which were then calculated using the Livak and Schmittgen formula: 2^−ΔCt1(test)−ΔCt2(control) (Livak and Schmittgen [2001]; Vandesompele et al. [2002]).
(§4) The expression profiles (Fig. 4) display the log(2) transformed mean expression value for each gene target relative to the negative control. Expression values for each target were determined relative to the geometric means of reference genes. […] Each graph contains a threshold line, set at the value of one, this represents baseline expression levels of genes.

[3] = tested on: apoptotic genes in MCF-7 cells; assay: Apoptosis-related gene expression, qRT-PCR; type: cell-based, human; conditions: MCF-7, IC25 concentration, 24 h, relative to negative control
Protocol: as §1, §2, §3, §4

HaCaT cells = tested on: HaCaT cells; set-up: method as in Kellett et al. [2011]; Slator et al. [2017]; conditions: HaCaT vs colorectal cancer lines; ref Kellett et al. [2011]; Slator et al. [2017]; cited from earlier work
HT29, SW480 and SW620 = tested on: HT29, SW480 and SW620; set-up: method as in Kellett et al. [2011]; Slator et al. [2017]; conditions: ref Kellett et al. [2011], Slator et al. [2017]; cited from earlier work
Galleria Mellonella = tested on: Galleria Mellonella; set-up: method as in Kellett et al. [2011]; Slator et al. [2017]; conditions: ref Kellett et al. [2011], Slator et al. [2017]; cited from earlier work

SMILES	Expression of caspase-3/7 (% cells) [1]	Caspase gene expression (caspase-9, -8, -3) [2]	Pro-apoptotic gene expression (BID, BIM, BAD, BAX) [2]	Caspase gene expression (caspase-9, -8, -3) [3]	Pro-apoptotic gene expression (BID, BIM, BAD, BAX) [3]	Reduction in potency towards non-cancerous cells (HaCaT cells)	Cytotoxicity towards colorectal cancers (HT29, SW480 and SW620)	In vivo tolerance (Galleria Mellonella)
N.N.[Cl][Pt][Cl] [Cisplatin, reference compound]	lowest expression levels	all caspases seen to be activated	pro-apoptotic BIM and BAD were upregulated	all caspases seen to be activated	pro-apoptotic BIM and BAD were upregulated			
O.O.O=C([O-])CCCCCCC(=O)[O-].[Mn+2].[Mn+2].c1cnc2c(c1)ccc1cccnc12.c1cnc2c(c1)ccc1cccnc12.c1cnc2c(c1)ccc1cccnc12.c1cnc2c(c1)ccc1cccnc12 [[Mn2(μ-oda)(phen)4(H2O)2]^2+]						almost tenfold reduction in potency	nano-molar cytotoxicity	well-tolerated
